Source: ChEMBL document CHEMBL4196183, “Discovery of New Allosteric Modulators of the Urotensinergic System through Substitution of the Urotensin II-Related Peptide (URP) Phenylalanine Residue” (J Med Chem, 2018)
Activity calls are given as the source filed them. No cut-off for these calls is given here.

Key:
[1] = target: T1, Urotensin-2 receptor (Rattus norvegicus) (UniProt P49684); assay: Agonist activity at UT receptor in Sprague-Dawley rat thoracic aortic ring assessed as induction of contraction at 10^-5M relative to KCl-induced contraction; assay type: functional
T1 sequence (whole entry): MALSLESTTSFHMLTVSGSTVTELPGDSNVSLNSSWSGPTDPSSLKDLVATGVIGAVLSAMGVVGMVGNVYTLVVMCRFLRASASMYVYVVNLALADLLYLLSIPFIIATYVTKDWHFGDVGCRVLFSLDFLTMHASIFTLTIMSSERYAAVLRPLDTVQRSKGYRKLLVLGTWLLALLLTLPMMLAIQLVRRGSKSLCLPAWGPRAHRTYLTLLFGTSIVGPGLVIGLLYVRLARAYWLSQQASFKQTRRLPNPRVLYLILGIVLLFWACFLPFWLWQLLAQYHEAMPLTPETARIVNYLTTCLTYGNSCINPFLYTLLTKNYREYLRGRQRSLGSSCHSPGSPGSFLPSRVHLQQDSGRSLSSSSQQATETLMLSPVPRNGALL

[2] = target: T1, Urotensin-2 receptor (Rattus norvegicus); assay: (§1) Antagonist activity at UT receptor in Sprague-Dawley rat thoracic aortic ring assessed as reduction in urotensin-2-induced contraction by measuring Emax for human urotensin-2-induced contraction at 1 uM pre-incubated for 30 mins before urotensin-2 stimulation relative to KCl-induced contraction (reference value: 101 +/- 4%); assay type: functional
[3] = target: T1, Urotensin-2 receptor (Rattus norvegicus); assay: as §1, with “in URP-induced” for “in urotensin-2-induced”, “value: 107” for “value: 101”, “+/- 3%)” for “+/- 4%)”; assay type: functional
[4] = target: T2, Urotensin-2 receptor (Homo sapiens) (UniProt Q9UKP6); assay: Agonist activity at human UT receptor expressed in HEK293 cells co-expressing Gq-polycistronic BRET biosensor assessed as induction of Gq activation measured for 5 mins by luminescence detection based BRET assay relative to 10 uM URP; assay type: functional, cell-based
T2 sequence (whole entry): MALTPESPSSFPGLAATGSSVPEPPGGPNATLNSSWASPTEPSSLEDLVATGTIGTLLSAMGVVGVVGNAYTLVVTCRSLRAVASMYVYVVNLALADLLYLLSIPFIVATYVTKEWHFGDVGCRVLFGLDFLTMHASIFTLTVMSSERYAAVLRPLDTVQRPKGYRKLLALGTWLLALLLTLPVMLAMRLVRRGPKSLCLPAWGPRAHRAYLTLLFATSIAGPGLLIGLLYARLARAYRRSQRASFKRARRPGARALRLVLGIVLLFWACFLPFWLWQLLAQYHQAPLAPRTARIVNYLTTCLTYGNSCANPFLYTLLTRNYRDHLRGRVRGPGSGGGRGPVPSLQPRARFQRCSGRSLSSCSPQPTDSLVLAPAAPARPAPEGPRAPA

[5] = target: T2, Urotensin-2 receptor (Homo sapiens); assay: Agonist activity at human UT receptor expressed in HEK293 cells co-expressing G12-polycistronic BRET biosensor assessed as induction of G12 activation measured for 5 mins by luminescence detection based BRET assay relative to 10 uM URP; assay type: functional, cell-based
[6] = target: T2, Urotensin-2 receptor (Homo sapiens); assay: Agonist activity at human UT receptor expressed in HEK293 cells co-expressing beta-arrestin1-polycistronic BRET biosensor assessed as induction of beta-arrestin1 recruitment measured for 5 mins by luminescence detection based BRET assay relative to 10 uM URP; assay type: functional, cell-based
[7] = target: T2, Urotensin-2 receptor (Homo sapiens); assay: (§2) Selectivity index, change in deltalog(Tau/KA) for agonist activity at human UT receptor expressed in HEK293 cells co-expressing G12-polycistronic BRET biosensor assessed as induction of G12 activation by luminescence detection based BRET assay to deltalog(Tau/KA) for agonist activity at human UT receptor expressed in HEK293 cells co-expressing Gq-polycistronic BRET biosensor assessed as induction of Gq activation by luminescence detection based BRET assay; assay type: functional, cell-based
[8] = target: T2, Urotensin-2 receptor (Homo sapiens); assay: as §2, with “Bias factor, ratio of” for “Selectivity index, change in”; assay type: functional, cell-based
[9] = target: T2, Urotensin-2 receptor (Homo sapiens); assay: (§3) Bias factor, ratio of deltalog(Tau/KA) for agonist activity at human UT receptor expressed in HEK293 cells co-expressing Gq-polycistronic BRET biosensor assessed as induction of Gq activation by luminescence detection based BRET assay to deltalog(Tau/KA) for agonist activity at human UT receptor expressed in HEK293 cells co-expressing G12-polycistronic BRET biosensor assessed as induction of G12 activation by luminescence detection based BRET assay; assay type: functional, cell-based
[10] = target: T2, Urotensin-2 receptor (Homo sapiens); assay: Selectivity index, change in deltalog(Tau/KA) for agonist activity at human UT receptor expressed in HEK293 cells co-expressing Gq-polycistronic BRET biosensor assessed as induction of Gq activation by luminescence detection based BRET assay to deltalog(Tau/KA) for agonist activity at human UT receptor expressed in HEK293 cells co-expressing beta-arrestin1-polycistronic BRET biosensor assessed as induction of beta-arrestin1 recruitment by luminescence detection based BRET assay; assay type: functional, cell-based
[11] = target: T2, Urotensin-2 receptor (Homo sapiens); assay: as §3, with “beta-arrestin1-polycistronic” for “G12-polycistronic”, “beta-arrestin1 recruitment” for “G12 activation”; assay type: functional, cell-based
[12] = target: T2, Urotensin-2 receptor (Homo sapiens); assay: (§4) Bias factor, ratio of deltalog(Tau/KA) for agonist activity at human UT receptor expressed in HEK293 cells co-expressing beta-arrestin1-polycistronic BRET biosensor assessed as induction of beta-arrestin1 recruitment by luminescence detection based BRET assay to deltalog(Tau/KA) for agonist activity at human UT receptor expressed in HEK293 cells co-expressing Gq-polycistronic BRET biosensor assessed as induction of Gq activation by luminescence detection based BRET assay; assay type: functional, cell-based
[13] = target: T2, Urotensin-2 receptor (Homo sapiens); assay: Selectivity index, change in deltalog(Tau/KA) for agonist activity at human UT receptor expressed in HEK293 cells co-expressing beta-arrestin1-polycistronic BRET biosensor assessed as induction of beta-arrestin1 recruitment by luminescence detection based BRET assay to deltalog(Tau/KA) for agonist activity at human UT receptor expressed in HEK293 cells co-expressing G12-polycistronic BRET biosensor assessed as induction of G12 activation by luminescence detection based BRET assay to; assay type: functional, cell-based
[14] = target: T2, Urotensin-2 receptor (Homo sapiens); assay: as §4, with “G12-polycistronic” for “Gq-polycistronic”, “G12” for “Gq”; assay type: functional, cell-based
[15] = target: T2, Urotensin-2 receptor (Homo sapiens); assay: Bias factor, ratio of deltalog(Tau/KA) for agonist activity at human UT receptor expressed in HEK293 cells co-expressing G12-polycistronic BRET biosensor assessed as induction of G12 activation by luminescence detection based BRET assay to deltalog(Tau/KA) for agonist activity at human UT receptor expressed in HEK293 cells co-expressing beta-arrestin1-polycistronic BRET biosensor assessed as induction of beta-arrestin1 recruitment by luminescence detection based BRET assay; assay type: functional, cell-based
Urotensin-2 receptor [16] = target: T3, Urotensin-2 receptor (Homo sapiens, UniProt Q9UKP6); assay: Displacement of [Na125I]-synthetic URP from human UT receptor expressed in HEK293 cell membranes incubated for 2 hrs by gamma-counting
T3 sequence (Q9UKP6 whole entry): T2 sequence (whole entry)

Urotensin-2 receptor [17] = target: T4, Urotensin-2 receptor (Rattus norvegicus, UniProt P49684); assay: Agonist activity at UT receptor in Sprague-Dawley rat thoracic aortic ring assessed as induction of contraction; assay type: functional
T4 sequence (P49684 whole entry): T1 sequence (whole entry)

[18] = target: T1, Urotensin-2 receptor (Rattus norvegicus); assay: Agonist activity at UT receptor in Sprague-Dawley rat thoracic aortic ring assessed as induction of contraction relative to KCl-induced contraction; assay type: functional
[19] = target: T1, Urotensin-2 receptor (Rattus norvegicus); assay: Antagonist activity at UT receptor in Sprague-Dawley rat thoracic aortic ring assessed as reduction in urotensin-2-induced contraction by measuring pEC50 for human urotensin-2-induced contraction at 1 uM pre-incubated for 30 mins before urotensin-2 stimulation (reference value: 8.59 +/- 0.12); assay type: functional
[20] = target: T1, Urotensin-2 receptor (Rattus norvegicus); assay: Antagonist activity at UT receptor in Sprague-Dawley rat thoracic aortic ring assessed as reduction in URP-induced contraction by measuring pEC50 for […] at 1 uM pre-incubated for 30 mins […] (reference value: 8.16 +/- 0.08); assay type: functional
Urotensin-2 receptor [21] = target: T3, Urotensin-2 receptor; assay: Agonist activity at human UT receptor expressed in HEK293 cells co-expressing Gq-polycistronic BRET biosensor assessed as induction of Gq activation measured for 5 mins by luminescence detection based BRET assay; assay type: functional, cell-based
Urotensin-2 receptor [22] = target: T3, Urotensin-2 receptor; assay: Agonist activity at human UT receptor expressed in HEK293 cells co-expressing G12-polycistronic BRET biosensor assessed as induction of G12 activation measured for 5 mins by luminescence detection based BRET assay; assay type: functional, cell-based
Urotensin-2 receptor [23] = target: T3, Urotensin-2 receptor; assay: Agonist activity at human UT receptor expressed in HEK293 cells co-expressing beta-arrestin1-polycistronic BRET biosensor assessed as induction of beta-arrestin1 recruitment measured for 5 mins by luminescence detection based BRET assay; assay type: functional, cell-based
[24] = target: T1, Urotensin-2 receptor (Rattus norvegicus); assay: Antagonist activity at UT receptor in Sprague-Dawley rat thoracic aortic ring assessed as reduction in urotensin-2-induced contraction by measuring Emax for human urotensin-2-induced contraction at 1 x 10^-8M uM pre-incubated for 30 mins before urotensin-2 stimulation (reference value: 101 +/- 4%); assay type: functional
[25] = target: T1, Urotensin-2 receptor (Rattus norvegicus); assay: Antagonist activity at UT receptor in Sprague-Dawley rat thoracic aortic ring assessed as reduction in urotensin-2-induced contraction by measuring Emax for human urotensin-2-induced contraction at 1 x 10^-7M uM pre-incubated for 30 mins before urotensin-2 stimulation (reference value: 101 +/- 4%); assay type: functional
[26] = target: T1, Urotensin-2 receptor (Rattus norvegicus); assay: as §1, with “in URP-induced” for “in urotensin-2-induced”, “at 3 x 10^-10M” for “at 1 uM”, “value: 107” for “value: 101”, “+/- 3%)” for “+/- 4%)”; assay type: functional
[27] = target: T1, Urotensin-2 receptor (Rattus norvegicus); assay: as §1, with “in URP-induced” for “in urotensin-2-induced”, “at 3 x 10^-9M” for “at 1 uM”, “value: 107” for “value: 101”, “+/- 3%)” for “+/- 4%)”; assay type: functional
[28] = target: T1, Urotensin-2 receptor (Rattus norvegicus); assay: as §1, with “in URP-induced” for “in urotensin-2-induced”, “1 x 10^-8M” for “1 uM”, “value: 107” for “value: 101”, “+/- 3%)” for “+/- 4%)”; assay type: functional
[29] = target: T1, Urotensin-2 receptor (Rattus norvegicus); assay: as §1, with “in URP-induced” for “in urotensin-2-induced”, “1 x 10^-7M” for “1 uM”, “value: 107” for “value: 101”, “+/- 3%)” for “+/- 4%)”; assay type: functional

| Compound | Emax [2] [%] | Emax [3] [%] | Emax [4] [%] | Emax [5] [%] | Emax [6] [%] | deltalog(Tau/KA) [7] | fold change (FC) [8] | fold change (FC) [9] | selectivity index, deltadeltalog(Tau/KA) [10] | fold change (FC) [11] | fold change (FC) [12] | deltadeltalog(Tau/KA) (beta-arrestin1 selectivity index) [13] | fold change (FC) [14] | fold change (FC) [15] | IC50 (Urotensin-2 receptor [16]) [nM] | EC50 (Urotensin-2 receptor [17]) [nM] | Emax [18] [%] | pEC50 [19] | pEC50 [20] | EC50 (Urotensin-2 receptor [21]) [nM] | further results |
| --- | --- | --- | --- | --- | --- | --- | --- | --- | --- | --- | --- | --- | --- | --- | --- | --- | --- | --- | --- | --- | --- |
| CC(C)[C@H](NC(=O)[C@@H]1CSSC[C@H](NC(=O)[C@H](N)CC(=O)O)C(=O)N[C@@H](Cc2ccc(I)cc2)C(=O)N[C@@H](Cc2c[nH]c3ccccc23)C(=O)N[C@@H](CCCCN)C(=O)N[C@@H](Cc2ccc(O)cc2)C(=O)N1)C(=O)O | 95 | 107 | 91 | 91 | 97 | 0.64 | 4.3 | 0.2 | -0.73 | 0.2 | 5.3 | 0.09 | 1.2 | 0.8 | – | – | – | – | – | – | Emax [1]: 49% |
| CC(C)[C@H](NC(=O)[C@@H]1CSSC[C@H](NC(=O)[C@H](C)N)C(=O)N[C@@H](Cc2ccc(C#Cc3ccccc3)cc2)C(=O)N[C@@H](Cc2c[nH]c3ccccc23)C(=O)N[C@@H](CCCCN)C(=O)N[C@@H](Cc2ccc(O)cc2)C(=O)N1)C(=O)O | 15 | 25 | 102 | 78 | 94 | 0.24 | 1.8 | 0.6 | -0.03 | 0.9 | 1.1 | -0.22 | 0.6 | 1.6 | 26.9 | 32.4 | 28 | Active | Active | 27.5 | EC50 (Urotensin-2 receptor [22]): 148 nM; EC50 (Urotensin-2 receptor [23]): 759 nM |
| CC(C)[C@H](NC(=O)[C@@H]1CSSC[C@H](NC(=O)[C@H](C)N)C(=O)N[C@@H](Cc2ccc(-c3ccccc3)cc2)C(=O)N[C@@H](Cc2c[nH]c3ccccc23)C(=O)N[C@@H](CCCCN)C(=O)N[C@@H](Cc2ccc(O)cc2)C(=O)N1)C(=O)O | 23 | 31 | 91 | 80 | 76 | 0.15 | 1.4 | 0.7 | 0.45 | 2.8 | 0.4 | -0.6 | 0.3 | 3.9 | 5.37 | 28.8 | 25 | Active | Active | 15.1 | Emax [24]: 78%; Emax [25]: 58%; Emax [26]: 104%; Emax [27]: 94%; Emax [28]: 75%; Emax [29]: 60%; EC50 (Urotensin-2 receptor [22]): 120 nM; EC50 (Urotensin-2 receptor [23]): 603 nM |
